Consider one compound from PMC5916032 (Journal of molecular biology, 2018).

In this test the target is fascin 1 (Homo sapiens, UniProt Q16658). Description: X-ray co-crystal structure. The format is biochemical.

Take `Cc1cnoc1C(=O)Nc1nn(Cc2ccc(C(F)(F)F)cc2)c2ccccc12` [NP-G2-029, 4-methyl-N-(1-(4-(trifluoromethyl)benzyl)-1H-indazol-3-yl)isoxazole-5-carboxamide]: the IC50 is about 0.18 µM.
